# How the values were obtained:
# [1] = target: T1, purinergic P2X2 ligand-gated ion channel (Homo sapiens, UniProt Q9UBL9); assay: ATP dose response in FLIPR membrane potential assay with DiSBAC1(3); format: cell-based; settings: ATP dose response in P2X2 cells loaded with DiSBAC1(3); worded as 'should be approximately'
# T1 construct: expressed in transfected cells; host or cells: 1321N1 astrocytoma cells
# T1 sequence (Q9UBL9 1-471): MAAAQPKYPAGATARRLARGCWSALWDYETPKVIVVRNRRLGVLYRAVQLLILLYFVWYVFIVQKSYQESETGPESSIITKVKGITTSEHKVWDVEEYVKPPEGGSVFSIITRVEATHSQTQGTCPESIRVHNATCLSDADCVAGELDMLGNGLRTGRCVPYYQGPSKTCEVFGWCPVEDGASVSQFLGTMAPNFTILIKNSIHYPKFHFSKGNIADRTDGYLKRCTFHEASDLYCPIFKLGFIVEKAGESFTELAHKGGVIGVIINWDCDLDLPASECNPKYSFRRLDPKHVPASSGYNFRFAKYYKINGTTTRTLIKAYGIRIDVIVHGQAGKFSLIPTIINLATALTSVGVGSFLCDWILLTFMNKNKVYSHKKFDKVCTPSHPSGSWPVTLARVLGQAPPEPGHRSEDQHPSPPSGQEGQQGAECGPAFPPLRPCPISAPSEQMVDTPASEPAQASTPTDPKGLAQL
# P2X2 cells = assay: FLIPR membrane potential assay, fluorescence response of dyes in P2X2 cells; format: cell-based; settings: for Fluorescence enhancement by 10 μM ATP stimulation (in folds) / Response speed: P2X2 cells, FLIPR; for Response speed: ATP stimulation; for Response to membrane potential change (speed, in words): compared with other DiBAC/DiSBAC dyes; for Signal strength: compared with other members of the DiBAC and DiSBAC family, FLIPR and other fluorescence devices
# Description: This specific example illustrates how to use DiSBA1(3) in P2X2 cells in combination with the FLIPR™ fluorescent imaging plate reader sold by Molecular Devices Corp. of Sunnyvale, Calif. P2X2 cells are 1321 N1 astrocytoma cells transfected to overexpress the purinergic P2X2 ligand-gated ion channel. P2X2 belongs to a class of purinergic ion channels that pass calcium and sodium in response to purine, including adenosine 5′-triphosphate (ATP). P2X2 cells are propagated and maintained in DME (high glucose), 10% FCS, 1× Pen/Strep and 2 mM L-glutamine. Doubling time is approximately 36 hours. P2X2 cells should be split at a 1 to 2 ratio upon confluence. The cells should be carried for no more than 20 passages. When approaching this limit, a new frozen vial of cells should be resurrected. Following is a typical kit procedure: • 1. Plate 40,000 P2X2 cells in 100 μL per well for 96 well plates or 10,000 P2X2 cells in 25 μL per well for 384 well plates for overnight.
# 2. Prepare 1× Loading Buffer. • 2.1 To prepare the 1× Assay Buffer, pipette 10 mL of 10× Reagent Buffer (1× Hanks' Balance Saline Solution+20 mM HPEPES, pH 7.40) and dilute in 90 mL of distilled water. Adjust pH to 7.4 using 1.0 N NaOH and/or 1.0 N HCl. • 2.2 To prepare 10 mM stock solution of DiSBAC1(3), dissolve 3.8 mg DiSBAC1(3) in 1 mL DMSO • 2.3 To prepare 10% pluronic acid, dissolve 400 mg pluronic acid in 4 mL water. Heat to 37° C. to complete dissolution. • 2.4 To prepare 1× Loading Buffer, add 30 μL of stock DiSBAC1(3), 8 μL 10% pluronic acid, and 20.0 mg DB71 in the 1× FLIPR assay buffer. • 3. Load Cells with 1× Loading Buffer • 4. Remove cell plates from the incubator • 5. Add 100 μL of 1× Loading Buffer per well of 96-well plates or 25 μL per well of 384-well plates. • 6. Incubate plates at 37° C. for 30 minutes. • 7. Run the FLIPR Membrane Potential Assay • 7.1 Make 5× compound plate prior to running the FLIPR assay. Dissolve 27.5 mg of ATP (Sigma Cat# A3377) in 1 mL of sterile water to make a 50 mM stock solution. […] Choose p2x2.fcf for experimental setup in the FLIPR software. Set up the appropriate experiment parameters. • 7.3 After incubation, transfer the plates directly to FLIPR and begin the Membrane Potential Assay. • 8. Run FLIPR and perform data analysis.
# DiSBAC1(3), DiSBAC2(3), DiSBAC3(3), DiSBAC4(3), DiBAC1(3) and DiBAC4(3) are dissolved in DMSO (1 mM). The stock solutions are respectively used to assay membrane potential changes in the P2X2 cells in combination with FLIPR™ as described in Example 2.
# [2] = format: physicochemical; settings: compared with the other oxonol dyes
# Experimental: (§1) DiSBAC1(3), DiSBAC2(3), DiSBAC3(3), DiSBAC4(3), DiBAC1(3) and DiBAC4(3) are dissolved in DMSO (3 mM). The DMSO stock solutions are respectively partitioned in 1:1 octanol/water mixture. The concentrations of the oxonol dyes in octanol and water layers are determined by absorption spectra.
# [3] = Octanol/water partition of DiBAC and DiSBAC dyes, read by absorption spectra; format: physicochemical; settings: for Absorbance in Octanol / Absorbance in Water: 3 mM DMSO stock partitioned in 1:1 octanol/water; for Absorbance in Octanol: octanol layer; for Absorbance in Water: water layer; for Absorbance in Water/Absorbance in Octanol: 1:1 octanol/water partition; for Relative Values: water/octanol ratio relative to DiBAC1(3) (DiBAC dyes) or DiSBAC1(3) (DiSBAC dyes)
# Experimental: as §1
# PC12 = assay: DiSBAC1(3) as fluorescent indicator of transmembrane potential depolarization of PC12 cells; format: cell-based, rat; settings: 75 mM potassium gluconate, 2.5 μM dye, 200 μM Direct Blue 71
# [4] = tested on: voltage-gated sodium channels; format: cell-based, rat
Structure (SMILES),EC50 [1],Fluorescence enhancement by 10 μM ATP stimulation (in folds) (P2X2 cells),Response speed (P2X2 cells),"Response to membrane potential change (speed, in words) (P2X2 cells)","Response to membrane potential change (speed, in words) (P2X2 cells; listed as DiBAC1 (3))",Signal strength (P2X2 cells),Water solubility [2],Absorbance in Octanol [3],Absorbance in Water [3],Absorbance in Water/Absorbance in Octanol [3],Relative Values [3],Sensitivity to membrane potential change (P2X2 cells; compared with the rest of the DiSBACs),Hydrophilicity ([3]; compared with the other oxonol dyes),Fluorescence change on cell depolarization (PC12),Change in membrane potential (fluorescence increase) upon potassium addition [4]
"Nc1ncnc2c1ncn2[C@@H]1O[C@H](COP(=O)(O)OP(=O)(O)OP(=O)(O)O)[C@@H](O)[C@H]1O [ATP, adenosine 5′-triphosphate]",10 to 100 nM,,,,,,,,,,,,,,
CN1C(=O)C(=CC=Cc2c(O)n(C)c(=O)n(C)c2=O)C(=O)N(C)C1=O [DiBAC1(3)],,3.7 folds,fast,much faster response,faster response,stronger signal,greater water solubility,0.3104,1.297,4.179,1,,,,
CCCCN1C(=O)C(=CC=Cc2c(O)n(CCCC)c(=O)n(CCCC)c2=O)C(=O)N(CCCC)C1=O [DiBAC4(3)],,3.3 folds,slow,,,,,2.854,0.002501,0.00088,0.00021,,,,
"CN1C(=O)C(=CC=Cc2c(O)n(C)c(=S)n(C)c2=O)C(=O)N(C)C1=S [DiSBAC1(3), Bis-(1,3-dimethylthiobarbituric acid)trimethine oxonol]",,108.5 folds,fast,faster response,,stronger signal,,0.9126,0.06147,0.0674,1,much more sensitive,much more hydrophilic,increased DiSBAC1(3) fluorescence,
CCN1C(=O)C(=CC=Cc2c(O)n(CC)c(=S)n(CC)c2=O)C(=O)N(CC)C1=S [DiSBAC2(3)],,38.6 folds,moderate,,,,,2.187,0.01143,0.0052,0.078,,,,
CCCN1C(=O)C(=CC=Cc2c(O)n(CCC)c(=S)n(CCC)c2=O)C(=O)N(CCC)C1=S [DiSBAC3(3)],,14.5 folds,slow,,,,,4.331,0.002256,0.0005,0.0077,,,,
CCCCN1C(=O)C(=CC=Cc2c(O)n(CCCC)c(=S)n(CCCC)c2=O)C(=O)N(CCCC)C1=S [DiSBAC4(3)],,2.3 folds,slow,,,,,3.226,0.003318,<0.0010,<0.0077,,,,
"NC1=N[C@H](O)[C@H]2[C@H]3O[C@]4(O)O[C@@H]([C@@H](O)[C@@]2(N1)[C@@H]4O)[C@]3(O)CO [TTX, tetrodotoxin]",,,,,,,,,,,,,,,smaller increase in fluorescence

# From US7358064B2, “Kits for measuring cellular transmembrane potential changes” (Molecular Devices Corporation, priority 2001, dated 2008)
